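GI50 = concentration required for 50% inhibition of growth. TGI: total growth inhibition.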
Key:
Assay in all cases: inhibition of tumour cell growth, NCI panel, 384-well format
786-0 renal = tested on: 786-0 renal
A498 renal = tested on: A498 renal
A549 NSCLC = tested on: A549 NSCLC
ACHN renal = tested on: ACHN renal
BT-549 breast = tested on: BT-549 breast
CAKI-1 renal = tested on: CAKI-1 renal
CCRF-CEM leukemia = tested on: CCRF-CEM leukemia
COLO 205 colon = tested on: COLO 205 colon
DU-145 prostate = tested on: DU-145 prostate
EKVX NSCLC = tested on: EKVX NSCLC
HCC-2998 colon = tested on: HCC-2998 colon
HCT-116 colon = tested on: HCT-116 colon
HCT-15 colon = tested on: HCT-15 colon
HL-60(TB) leukemia = tested on: HL-60(TB) leukemia
HOP-62 NSCLC = tested on: HOP-62 NSCLC
HOP-92 NSCLC = tested on: HOP-92 NSCLC
HT29 colon = tested on: HT29 colon
IGROV1 ovarian = tested on: IGROV1 ovarian
K-562 leukemia = tested on: K-562 leukemia
KM12 colon = tested on: KM12 colon
LOX IMVI melanoma = tested on: LOX IMVI melanoma
M14 melanoma = tested on: M14 melanoma
MALME-3M melanoma = tested on: MALME-3M melanoma
MCF7 breast = tested on: MCF7 breast
MDA-MB-231 breast = tested on: MDA-MB-231 breast
MDA-MB-435 melanoma = tested on: MDA-MB-435 melanoma
MDA-MB-468 breast = tested on: MDA-MB-468 breast
MOLT-4 leukemia = tested on: MOLT-4 leukemia
NCI-H226 lung = tested on: NCI-H226 lung
NCI-H23 lung = tested on: NCI-H23 lung
NCI-H322M lung = tested on: NCI-H322M lung
NCI-H460 NSCLC = tested on: NCI-H460 NSCLC
NCI-H522 lung = tested on: NCI-H522 lung
NCI/ADR-RES ovarian = tested on: NCI/ADR-RES ovarian
OVCAR-3 ovarian = tested on: OVCAR-3 ovarian
OVCAR-4 ovarian = tested on: OVCAR-4 ovarian
OVCAR-5 ovarian = tested on: OVCAR-5 ovarian
OVCAR-8 ovarian = tested on: OVCAR-8 ovarian
PC-3 prostate = tested on: PC-3 prostate
RPMI-8226 leukemia = tested on: RPMI-8226 leukemia
RXF 393 renal = tested on: RXF 393 renal
SF-268 CNS = tested on: SF-268 CNS
SF-295 CNS = tested on: SF-295 CNS
SF-539 CNS = tested on: SF-539 CNS
SK-MEL-2 melanoma = tested on: SK-MEL-2 melanoma
SK-MEL-28 melanoma = tested on: SK-MEL-28 melanoma
SK-MEL-5 melanoma = tested on: SK-MEL-5 melanoma
SK-OV-3 ovarian = tested on: SK-OV-3 ovarian
SN12C renal = tested on: SN12C renal
SNB-19 CNS = tested on: SNB-19 CNS
SNB-75 CNS = tested on: SNB-75 CNS
SR leukemia = tested on: SR leukemia
SW-620 colon = tested on: SW-620 colon
T-47D breast = tested on: T-47D breast
TK-10 renal = tested on: TK-10 renal
U251 glioblastoma = tested on: U251 glioblastoma
UACC-257 melanoma = tested on: UACC-257 melanoma
UACC-62 melanoma = tested on: UACC-62 melanoma
UO-31 renal = tested on: UO-31 renal

Q: What does the source list for `CCc1cccc(CC)c1NC(=O)c1ccn2c1CCc1cnc(Nc3ccc(N4CCN(C)CC4)cc3OC)nc1-2`?
A: GI50 (786-0 renal): 0.0391 µM; TGI (786-0 renal): 1.69 µM; GI50 (A498 renal): < 0.0219 µM; TGI (A498 renal): 1.97 µM; GI50 (A549 NSCLC): < 0.01 µM; TGI (A549 NSCLC): 2.48 µM; GI50 (ACHN renal): 0.0379 µM; TGI (ACHN renal): 2.21 µM; GI50 (BT-549 breast): 0.0489 µM; TGI (BT-549 breast): 1.45 µM; GI50 (CAKI-1 renal): 0.242 µM; TGI (CAKI-1 renal): 2.2 µM; GI50 (CCRF-CEM leukemia): < 0.01 µM; TGI (CCRF-CEM leukemia): 0.0111 µM; GI50 (COLO 205 colon): < 0.01 µM; TGI (COLO 205 colon): 1.25 µM; GI50 (DU-145 prostate): 0.0358 µM; TGI (DU-145 prostate): 2.32 µM; GI50 (EKVX NSCLC): 0.283 µM; TGI (EKVX NSCLC): 2.28 µM; GI50 (HCC-2998 colon): 1.38 µM; TGI (HCC-2998 colon): 2.71 µM; GI50 (HCT-116 colon): < 0.01 µM; TGI (HCT-116 colon): 1.77 µM; GI50 (HCT-15 colon): < 0.01 µM; TGI (HCT-15 colon): 1.35 µM; GI50 (HL-60(TB) leukemia): 0.0136 µM; TGI (HL-60(TB) leukemia): 0.0364 µM; GI50 (HOP-62 NSCLC): < 0.0196 µM; TGI (HOP-62 NSCLC): 1.76 µM; GI50 (HOP-92 NSCLC): 0.758 µM; TGI (HOP-92 NSCLC): 2.12 µM; GI50 (HT29 colon): 0.0562 µM; TGI (HT29 colon): 1.53 µM; GI50 (IGROV1 ovarian): 1.22 µM; TGI (IGROV1 ovarian): 2.48 µM; GI50 (K-562 leukemia): 0.0824 µM; TGI (K-562 leukemia): 1.4 µM; GI50 (KM12 colon): 1.09 µM; TGI (KM12 colon): 2.32 µM; GI50 (LOX IMVI melanoma): 0.0134 µM; TGI (LOX IMVI melanoma): 1.36 µM; GI50 (M14 melanoma): 0.2 µM; TGI (M14 melanoma): 2.15 µM; GI50 (MALME-3M melanoma): 1.25 µM; TGI (MALME-3M melanoma): 2.51 µM; GI50 (MCF7 breast): < 0.01 µM; TGI (MCF7 breast): 2.16 µM; GI50 (MDA-MB-231 breast): 1.1 µM; TGI (MDA-MB-231 breast): 2.32 µM; GI50 (MDA-MB-435 melanoma): 1.07 µM; TGI (MDA-MB-435 melanoma): 2.58 µM; GI50 (MDA-MB-468 breast): 0.0362 µM; TGI (MDA-MB-468 breast): 0.305 µM; GI50 (MOLT-4 leukemia): < 0.01 µM; GI50 (NCI-H226 lung): 0.315 µM; TGI (NCI-H226 lung): 2.43 µM; GI50 (NCI-H23 lung): 0.0562 µM; TGI (NCI-H23 lung): 2.68 µM; GI50 (NCI-H322M lung): 1.48 µM; TGI (NCI-H322M lung): 3.08 µM; GI50 (NCI-H460 NSCLC): < 0.01 µM; TGI (NCI-H460 NSCLC): 1.07 µM; GI50 (NCI-H522 lung): 0.0889 µM; TGI (NCI-H522 lung): 1.72 µM; GI50 (NCI/ADR-RES ovarian): 0.027 µM; TGI (NCI/ADR-RES ovarian): 0.0862 µM; GI50 (OVCAR-3 ovarian): 0.11 µM; TGI (OVCAR-3 ovarian): 2 µM; GI50 (OVCAR-4 ovarian): 1.49 µM; TGI (OVCAR-4 ovarian): 2.91 µM; GI50 (OVCAR-5 ovarian): 0.11 µM; TGI (OVCAR-5 ovarian): 1.97 µM; GI50 (OVCAR-8 ovarian): 0.0198 µM; TGI (OVCAR-8 ovarian): 1.14 µM; GI50 (PC-3 prostate): 1.14 µM; TGI (PC-3 prostate): 2.4 µM; GI50 (RPMI-8226 leukemia): 0.0178 µM; TGI (RPMI-8226 leukemia): 0.0575 µM; GI50 (RXF 393 renal): < 0.0198 µM; TGI (RXF 393 renal): 1.75 µM; GI50 (SF-268 CNS): 1.29 µM; TGI (SF-268 CNS): 2.77 µM; GI50 (SF-295 CNS): 0.0366 µM; TGI (SF-295 CNS): 1.82 µM; GI50 (SF-539 CNS): < 0.0194 µM; TGI (SF-539 CNS): 1.45 µM; GI50 (SK-MEL-2 melanoma): 0.196 µM; TGI (SK-MEL-2 melanoma): 1.95 µM; GI50 (SK-MEL-28 melanoma): 1.21 µM; TGI (SK-MEL-28 melanoma): 2.46 µM; GI50 (SK-MEL-5 melanoma): 0.0615 µM; TGI (SK-MEL-5 melanoma): 2.02 µM; GI50 (SK-OV-3 ovarian): 1.26 µM; TGI (SK-OV-3 ovarian): 2.54 µM; GI50 (SN12C renal): 0.997 µM; TGI (SN12C renal): 2.16 µM; GI50 (SNB-19 CNS): 1.21 µM; TGI (SNB-19 CNS): 2.58 µM; GI50 (SNB-75 CNS): 1.37 µM; TGI (SNB-75 CNS): 2.69 µM; GI50 (SR leukemia): < 0.01 µM; GI50 (SW-620 colon): < 0.01 µM; GI50 (T-47D breast): 1.1 µM; TGI (T-47D breast): 2.32 µM; GI50 (TK-10 renal): 0.312 µM; TGI (TK-10 renal): 2.37 µM; GI50 (U251 glioblastoma): < 0.0115 µM; TGI (U251 glioblastoma): 1.48 µM; GI50 (UACC-257 melanoma): 0.293 µM; TGI (UACC-257 melanoma): 0.894 µM; GI50 (UACC-62 melanoma): 0.605 µM; TGI (UACC-62 melanoma): 2.18 µM; GI50 (UO-31 renal): 0.075 µM; TGI (UO-31 renal): 1.89 µM

Reference: PubChem BioAssay (NCI)
